Entries after “also recorded” stand apart in the source; their conditions may differ.
Columns and labels:
[1] = test system: NPT; format: biochemical, Clostridium perfringens ATCC 21510
[2] = test system: granulation tissue in P.V.H.-sponge; design: species or system rats (Wistar strain, male); conditions: rat, in vivo
[3] = test system: 5'-nucleotidase; assay: Effects of metal ions and other chemical agents on nucleotidase activity; format: biochemical
[4] = test system: NPT; format: biochemical, Clostridium perfringens ATCC 21510; remark: listed apart in the source
[5] = test system: epidermis (dorsal skin); assay: Experiment 9: epidermization effect on dermatome-peeled dorsal skin; format: in vivo, rabbit; conditions: further examination
[6] = test system: epidermis; conditions: literature; cited from earlier work
[7] = test system: collagen in P.V.H.-sponge; assay: Experiment 6: weight of collagen (hydroxyproline) in the buried sponge; format: in vivo, rats; conditions: for Hydroxyproline: n = 8; for Hydroxyproline, % of control: control = 100%

CN(CC(=O)O)C(=N)NP(=O)(O)O [creatine phosphate]
action as phosphate donor [1]: not observed

Nc1ncnc2c1ncn2[C@@H]1O[C@H](COP(=O)(O)OP(=O)(O)OP(=O)(O)O)[C@@H](O)[C@H]1O [adenosine triphosphate]
action as phosphate donor [1]: not observed

O=P(O)(O)OC[C@H]1OC(O)[C@H](O)[C@@H](O)[C@@H]1O (some centres unmarked) [glucose-6-phosphate]
action as phosphate donor [1]: not observed

Nc1ncnc2c1ncn2[C@H]1C[C@H](O)[C@@H](COP(=O)(O)OP(=O)(O)OP(=O)(O)O)O1 [deoxyadenosine triphosphate]
action as phosphate donor [1]: not observed

Nc1ccn([C@@H]2O[C@H](CO)[C@@H](O)[C@H]2O)c(=O)n1 [cytidine]
action as phosphate acceptor [1]: phosphate acceptor

CC(=O)OCC(=O)[C@@]1(O)CC[C@H]2[C@@H]3CCC4=CC(=O)C=C[C@]4(C)[C@H]3[C@@H](O)C[C@@]21C [Prednisolone acetate]
(1) Wet weight [2]: 225 ± 58.9 mg
(1)-(2) Liquid content [2]: 167.4 ± 52.2 mg
(2) - sponge weight, Solid content [2]: 22.6 ± 9.6 mg
(2) Dry weight [2]: 57.8 ± 9.9 mg
Dry weight, % [2]: 91.2%
Liquid content, % [2]: 68.4%
Solid content, % [2]: 80.7%
Wet weight, % [2]: 73.0%
effect on weights / newly grown granulation tissue (in words) [2]: the dry weight, wet weight, quantity of exudate and weight of newly grown granulation tissue all fall below those with the control

O=C(O)c1cc[c]([Hg][Cl])cc1 [p-chloromercuribenzoic acid]
effect on nucleotidase activity [3]: neither of them are inhibited
effect on NPT activity [4]: neither of them are inhibited

O=P(O)(O)OCC(O)CO (stereo not drawn) [α-glycerophosphate]
action as phosphate donor [1]: not observed

O=c1ccn([C@H]2C[C@H](O)[C@@H](CO)O2)c(=O)[nH]1 [deoxyuridine]
action as phosphate acceptor [1]: phosphate acceptor

Nc1ccn([C@H]2C[C@H](O)[C@@H](CO)O2)c(=O)n1 [deoxycytidine]
action as phosphate acceptor [1]: phosphate acceptor

[O]=[Zn] [zinc oxide]
capability of epidermization (in words) [5]: synergistic effect with GF-70 to stimulate the epidermization

vitamin A
effect on skin tissue / DNA synthesis in epidermis [6]: stimulates synthesis of DNA in the epidermis; also recorded: affect the growth and differentiation of the skin tissue

Cc1cn([C@H]2C[C@H](O)[C@@H](CO)O2)c(=O)[nH]c1=O [thymidine]
action as phosphate acceptor [1]: phosphate acceptor

3-phosphoglycerophosphate
action as phosphate donor [1]: not observed

O=c1ccn([C@@H]2O[C@H](CO)[C@@H](O)[C@H]2O)c(=O)[nH]1 [uridine]
action as phosphate acceptor [1]: lowest activity as the phosphate acceptor

B1: Albumin: egg albumin as the control (protein, UniProt P01012 2-386, looked up)
Ovalbumin: GSIGAASMEFCFDVFKELKVHHANENIFYCPIAIMSALAMVYLGAKDSTRTQINKVVRFDKLPGFGDSIEAQCGTSVNVHSSLRDILNQITKPNDVYSFSLASRLYAEERYPILPEYLQCVKELYRGGLEPINFQTAADQARELINSWVESQTNGIIRNVLQPSSVDSQTAMVLVNAIVFKGLWEKAFKDEDTQAMPFRVTEQESKPVQMMYQIGLFRVASMASEKMKILELPFASGTMSMLVLLPDEVSGLEQLESIINFEKLTEWTSSNVMEERKIKVYLPRMKMEEKYNLTSVLMAMGITDVFSSSANLSGISSAESLKISQAVHAAHAEINEAGREVVGSAEAGVDAASVSEEFRADHPFLFCIKHIATNAVLFFGRCVSP
weight of collagen (in words) ([7]; 4th and 7th days, vs control): no significant difference
Hydroxyproline ([7]; 4 days after burying): 132.3 ± 18.0 μg/sponge
Hydroxyproline, % of control ([7]; 4 days after burying): 105%
Hydroxyproline ([7]; 7 days after burying): 331.7 ± 18.8 μg/sponge
Hydroxyproline, % of control ([7]; 7 days after burying): 146%
